This passage reports Ki results from patent publication US8802674B2, “Aminopyrimidine derivatives as LRRK2 modulators” (Genentech, Inc., priority 2011, dated 2014).

The target of this assay is LRRK2 (Homo sapiens (Human), UniProt Q5S007, G2019S). As to the kind of experiment: In Vitro LRRK2 LabChip Assay. Format: biochemical. The procedure, abridged:
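Potency (Ki in μM, IC50 or % inhibition) derived from capillary-electrophoresis separation of phospho- and unphosphorylated fluorescent peptide, with Ki fitted by a tight-binding model.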

Sequence of LRRK2 (Q5S007 970-2527 G2019S limits assumed): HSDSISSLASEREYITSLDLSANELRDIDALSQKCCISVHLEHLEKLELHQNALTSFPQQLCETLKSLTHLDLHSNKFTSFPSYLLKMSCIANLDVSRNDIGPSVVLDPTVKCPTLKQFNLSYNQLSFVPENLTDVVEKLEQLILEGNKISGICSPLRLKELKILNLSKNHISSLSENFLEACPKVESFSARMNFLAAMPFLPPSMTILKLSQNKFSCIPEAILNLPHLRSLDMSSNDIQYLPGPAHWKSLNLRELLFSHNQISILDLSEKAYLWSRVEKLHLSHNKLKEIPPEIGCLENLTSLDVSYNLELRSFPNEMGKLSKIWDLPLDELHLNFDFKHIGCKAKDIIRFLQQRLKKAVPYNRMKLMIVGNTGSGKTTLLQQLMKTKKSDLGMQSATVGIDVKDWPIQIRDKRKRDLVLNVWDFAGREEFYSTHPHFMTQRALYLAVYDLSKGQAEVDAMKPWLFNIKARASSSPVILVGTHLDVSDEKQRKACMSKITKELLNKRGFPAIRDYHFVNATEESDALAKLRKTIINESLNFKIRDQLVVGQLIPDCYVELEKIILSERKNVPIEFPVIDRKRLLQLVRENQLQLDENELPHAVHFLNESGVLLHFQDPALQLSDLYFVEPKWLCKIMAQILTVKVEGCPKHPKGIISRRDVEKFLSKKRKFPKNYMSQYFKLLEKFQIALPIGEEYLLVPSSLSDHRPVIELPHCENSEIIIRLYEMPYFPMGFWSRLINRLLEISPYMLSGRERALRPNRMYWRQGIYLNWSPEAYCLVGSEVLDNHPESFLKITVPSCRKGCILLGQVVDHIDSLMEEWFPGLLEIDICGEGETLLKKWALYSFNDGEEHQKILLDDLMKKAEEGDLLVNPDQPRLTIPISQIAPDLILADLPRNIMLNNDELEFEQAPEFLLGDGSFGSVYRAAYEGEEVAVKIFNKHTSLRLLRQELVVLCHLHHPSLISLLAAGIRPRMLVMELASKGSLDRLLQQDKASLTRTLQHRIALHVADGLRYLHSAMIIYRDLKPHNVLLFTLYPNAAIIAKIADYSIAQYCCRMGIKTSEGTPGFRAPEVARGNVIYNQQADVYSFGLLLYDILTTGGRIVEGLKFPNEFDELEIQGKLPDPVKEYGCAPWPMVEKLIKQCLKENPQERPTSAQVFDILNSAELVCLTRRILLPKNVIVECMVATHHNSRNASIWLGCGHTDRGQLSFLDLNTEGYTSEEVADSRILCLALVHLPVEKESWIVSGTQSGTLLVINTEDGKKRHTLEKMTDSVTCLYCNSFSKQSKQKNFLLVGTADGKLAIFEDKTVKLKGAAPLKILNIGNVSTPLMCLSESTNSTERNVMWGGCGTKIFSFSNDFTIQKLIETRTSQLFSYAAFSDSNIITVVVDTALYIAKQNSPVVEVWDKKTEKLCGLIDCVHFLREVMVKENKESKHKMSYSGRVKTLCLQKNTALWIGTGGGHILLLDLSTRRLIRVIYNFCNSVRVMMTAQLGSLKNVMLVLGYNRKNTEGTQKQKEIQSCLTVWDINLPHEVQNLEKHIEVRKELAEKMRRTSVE

One may read the Ki as the dissociation constant of the complex between target and ligand, obtained from inhibition or displacement. `CNc1nc(Nc2ccc(C(=O)N3CCN(C4COC4)CC3)cc2OC)ncc1Br` [Example 78, [4-(5-Bromo-4-methylamino-pyrimidin-2-ylamino)-3-methoxy-phenyl]-(4-oxetan-3-yl-piperazin-1-yl)-methanone]: the inhibitory constant (Ki) (Table 4) came to 8 nM.
On the same count and under the same terms, next, `CNc1nc(Nc2ccc(C(=O)N3CCCC3C)cc2OC)ncc1Cl` (centres unmarked) [Example 29, [4-(5-Chloro-4-methylamino-pyrimidin-2-ylamino)-3-methoxy-phenyl]-(2-methyl-pyrrolidin-1-yl)-methanone]: 3.8 nM; `CNc1nc(Nc2ccc(C(=O)N3CCCC(C(F)(F)F)C3)cc2OC)ncc1Cl` (centres unmarked) [Example 26, [4-(5-Chloro-4-methylamino-pyrimidin-2-ylamino)-3-methoxy-phenyl]-(3-trifluoromethyl-piperidin-1-yl)-methanone]: 2.8 nM.
Under “Table 4”, `CCNc1nc(Nc2cc(OC)c(C(=O)NCCOC)cc2Cl)ncc1C(F)(F)F` [Example 149, 5-Chloro-4-(4-ethylamino-5-trifluoromethyl-pyrimidin-2-ylamino)-2-methoxy-N-(2-methoxy-ethyl)-benzamide] showed a Ki of 9.3 nM.
Under “Table 4”, `CNc1nc(Nc2cc(OC)c(C(=O)NC3CC3)cc2Cl)ncc1C(F)(F)F` [Example 154, 5-Chloro-N-cyclopropyl-2-methoxy-4-(4-methylamino-5-trifluoromethyl-pyrimidin-2-ylamino)-benzamide] displayed an inhibitory constant (Ki) of 5.2 nM.
Same read-out and setting: next, `COCCNc1nc(Nc2ccc(C(=O)N3CCOCC3)cc2OC)ncc1Cl` [Example 105, {4-[5-Chloro-4-(2-methoxy-ethylamino)-pyrimidin-2-ylamino]-3-methoxy-phenyl}-morpholin-4-yl-methanone]: 9.4 nM.
For the compound `COc1cc(C(=O)N2CCOCC2)c(Cl)cc1Nc1ncc(C(F)(F)F)c(OC)n1` [Example 262, [2-Chloro-5-methoxy-4-(4-methoxy-5-trifluoromethyl-pyrimidin-2-ylamino)-phenyl]-morpholin-4-yl-methanone], where the note is “Table 5”, the inhibitory constant (Ki) was found to be 24 nM.
`CCOc1cc(C(=O)N2CCOCC2)ccc1Nc1ncc(Cl)c(NC)n1` [Example 49, [4-(5-Chloro-4-methylamino-pyrimidin-2-ylamino)-3-ethoxy-phenyl]-morpholin-4-yl-methanone] displayed a Ki (Table 4) of 4.3 nM.
Still for that read-out and setting: next, `CNc1nc(Nc2ccc(C(=O)NCCCN)cc2OC)ncc1Cl` [Example 65, N-(3-Amino-propyl)-4-(5-chloro-4-methylamino-pyrimidin-2-ylamino)-3-methoxy-benzamide]: 2.3 nM.
Regarding `COc1cc(C(=O)N2CCOCC2)ccc1Nc1ncc(Cl)c(OC2CCOCC2)n1` [Example 264, {4-[5-Chloro-4-(tetrahydro-pyran-4-yloxy)-pyrimidin-2-ylamino]-3-methoxy-phenyl}-morpholin-4-yl-methanone], where the note is “Table 5”, affinity was put at a Ki of 33 nM. In other words, the double-digit nanomolar range.
Under “Table 4”, `CNc1nc(Nc2cc(F)c(C(=O)N3CCC(C#N)C3)cc2OC)ncc1C(F)(F)F` (stereo not drawn) [Example 178, l-[2-Fluoro-5-methoxy-4-(4-methylamino-5-trifluoromethyl-pyrimidin-2-ylamino)-benzoyl]-pyrrolidine-3-carbonitrile] came in with a Ki of 1.8 nM.
Turning to `CNc1nc(Nc2ccc(C(=O)N(C)CCOC)cc2OC)ncc1C(F)(F)F` [Example 301, 3-Methoxy-N-(2-methoxy-ethyl)-N-methyl-4-(4-methylamino-5-trifluoromethyl-pyrimidin-2-ylamino)-benzamide], affinity (Table 6) was put at a Ki of 5.1 nM.
As to `CNc1nc(Nc2ccc(C(=O)N3CCN(C(=O)C4CC4)CC3)cc2OC)ncc1Cl` [Example 70, [4-(5-Chloro-4-methylamino-pyrimidin-2-ylamino)-3-methoxy-phenyl]-(4-cyclopropanecarbonyl-piperazin-1-yl)-methanone], the affinity (Table 4) corresponds to a Ki of 2.2 nM.
Where the note is “Table 4”, `CNc1nc(Nc2ccc(C(=O)N3CCOCC3)cc2C)ncc1Cl` [Example 232, (4-(5-chloro-4-(methylamino)pyrimidin-2-ylamino)-3-methylphenyl) (morpholino) methanone] registered a Ki of 7.4 nM.
With `CNc1nc(Nc2cc(F)c(C(=O)N3CCC(OC)C3)cc2OC)ncc1C(F)(F)F` (centres unmarked) [Example 247, (2-fluoro-5-methoxy-4-(4-(methylamino)-5-(trifluoromethyl)pyrimidin-2-ylamino)phenyl)(3-methoxypyrrolidin-1-yl)methanone], for the setting “Table 4”, the affinity, expressed as Ki, was 2.7 nM.
As to `CNc1nc(Nc2ccc(C(=O)NC3CCN(C)CC3)cc2OC)ncc1C(F)(F)F` [Example 282, 3-Methoxy-4-(4-methylamino-5-trifluoromethyl-pyrimidin-2-ylamino)-N-(1-methyl-piperidin-4-yl)-benzamide], the inhibition constant (Ki) (Table 6) amounted to 0.6 nM.
Compound `CNc1nc(Nc2ccc(C(=O)N3CC(N4CCOCC4)C3)cc2OC)ncc1Cl` [Example 89, [4-(5-Chloro-4-methylamino-pyrimidin-2-ylamino)-3-methoxy-phenyl]-(3-morpholin-4-yl-azetidin-1-yl)-methanone] came in with a Ki (Table 4) of 2.7 nM. This counts as single-digit nanomolar.
Same read-out and setting: next, `CNc1nc(Nc2cc(OC)c(C(=O)NC3CCN(C)CC3)cc2Cl)ncc1C(F)(F)F` [Example 173, 5-Chloro-2-methoxy-4-(4-methylamino-5-trifluoromethyl-pyrimidin-2-ylamino)-N-(1-methyl-piperidin-4-yl)-benzamide]: 1.5 nM; `CNc1nc(Nc2ccc(C(=O)N3CCC(F)C3)cc2OC)ncc1C#N` (stereo in doubt) [Example 210, 2-[4-((R)-3-Fluoropyrrolidine-1-carbonyl)-2-methoxy-phenylamino]-4-methylamino-pyrimidine-5-carbonitrile]: 9.3 nM; `CNc1nc(Nc2cc(OC)c(CC(=O)N3CCOCC3)cc2OC)ncc1Br` [Example 220, 2-[4-(5-Bromo-4-methylamino-pyrimidin-2-ylamino)-2,5-dimethoxy-phenyl] 1-morpholin-4-yl-ethanone]: 3.4 nM.
Where the note is “Table 6”, `CNc1nc(Nc2cc(Cl)c(C(=O)N3CCOCC3)cc2OC)ncc1Cl` [Example 293, [2-Chloro-4-(5-chloro-4-methylamino-pyrimidin-2-ylamino)-5-methoxy-phenyl]-morpholin-4-yl-methanone] registered a Ki of 2.7 nM.
For the setting “Table 4”, `CNC(=O)c1ccc(Nc2ncc(C#N)c(NC)n2)c(OC)c1` [Example 197, 4-(5-Cyano-4-methylamino-pyrimidin-2-ylamino)-3-methoxy-N-methyl-benzamide] gave an inhibition constant (Ki) of 6.6 nM.
Turning to `CNc1nc(Nc2ccc(C(=O)N3CC(C)OC(C)C3)cc2OC)ncc1C(F)(F)F` (centres unmarked) [Example 277, (2,6-Dimethyl-morpholin-4-yl)-[3-methoxy-4-(4-methylamino-5-trifluoromethyl-pyrimidin-2-ylamino)-phenyl]-methanone], the inhibitory constant (Ki) (Table 6) was 4.9 nM. In other words, the single-digit nanomolar range.
As for `CCNc1nc(Nc2cc(F)c(C(=O)N(C)C)cc2OC)ncc1C#N` [Example 240, 4-(5-Cyano-4-ethylamino-pyrimidin-2-ylamino)-2-fluoro-5-methoxy-N,N-dimethyl-benzamide], under “Table 4”, the affinity, expressed as Ki, was 9.8 nM.
The same measure, in the same setting: next, `CNc1nc(Nc2ccc(C(=O)N3CCOCC3)cc2OC2CC2)ncc1Cl` [Example 217, [4-(5-Chloro-4-methylamino-pyrimidin-2-ylamino)-3-cyclopropoxy-phenyl]-morpholin-4-yl-methanone]: 2 nM.
With `CCNc1nc(Nc2ccc(C(=O)N3CCOCC3)cc2OC(C)C)ncc1C(F)(F)F` [Example 252, (4-(4-(ethylamino)-5-(trifluoromethyl)pyrimidin-2-ylamino)-3-isopropoxyphenyl) (morpholino) methanone], the inhibition constant (Ki) (Table 4) amounted to 4.5 nM.
